Consider 1 compound from ChEMBL document CHEMBL4354830, “Discovery of Benzo[cd]indol-2(1H)-ones and Pyrrolo[4,3,2-de]quinolin-2(1H)-ones as Bromodomain and Extra-Terminal Domain (BET) Inhibitors with Selectivity for the First Bromodomain with Potential High Efficiency against Acute Gouty Arthritis” (J Med Chem, 2019).

The subject of one data set is RAW264.7. As to the kind of experiment: Inhibition of LPS-induced NO overproduction in mouse RAW264.7 cells at 1 uM incubated for 2 hrs followed by LPS stimulation and measured after 22 hrs by Griess reagent based assay relative to control. The class given is functional. The conditions noted are these: Mus musculus, RAW264.7. Background: The Griess reaction detects nitrite, a stable product of nitric oxide.

Data set [1] deals with Bromodomain-containing protein 2 (Homo sapiens, UniProt P25440). As to the kind of experiment: Displacement of tetra-acetylated histone H4 peptide (1-21) from BRD2 BD1 (unknown origin) incubated for 30 mins followed by further incubation with tetra-acetylated histone H4 peptide (1-21) for 30 mins by Alphascreen assay. Background: Alpha assays give light when donor and acceptor beads are brought close together.

Data set [2] has as its target T1, Bromodomain-containing protein 3 (Homo sapiens, UniProt Q15059). As to the kind of experiment: Displacement of tetra-acetylated histone H4 peptide (1-21) from BRD3 BD1 (unknown origin) incubated for 30 mins followed by further incubation with tetra-acetylated histone H4 peptide (1-21) for 30 mins by Alphascreen assay.
In data set [3] the target is T1, Bromodomain-containing protein 3. As to the kind of experiment: Displacement of tetra-acetylated histone H4 peptide (1-21) from BRD3 BD2 (unknown origin) incubated for 30 mins followed by further incubation with tetra-acetylated histone H4 peptide (1-21) for 30 mins by Alphascreen assay.
A further data set deals with T2, Peregrin (Homo sapiens, UniProt P55201).
T2 sequence (P55201 whole entry): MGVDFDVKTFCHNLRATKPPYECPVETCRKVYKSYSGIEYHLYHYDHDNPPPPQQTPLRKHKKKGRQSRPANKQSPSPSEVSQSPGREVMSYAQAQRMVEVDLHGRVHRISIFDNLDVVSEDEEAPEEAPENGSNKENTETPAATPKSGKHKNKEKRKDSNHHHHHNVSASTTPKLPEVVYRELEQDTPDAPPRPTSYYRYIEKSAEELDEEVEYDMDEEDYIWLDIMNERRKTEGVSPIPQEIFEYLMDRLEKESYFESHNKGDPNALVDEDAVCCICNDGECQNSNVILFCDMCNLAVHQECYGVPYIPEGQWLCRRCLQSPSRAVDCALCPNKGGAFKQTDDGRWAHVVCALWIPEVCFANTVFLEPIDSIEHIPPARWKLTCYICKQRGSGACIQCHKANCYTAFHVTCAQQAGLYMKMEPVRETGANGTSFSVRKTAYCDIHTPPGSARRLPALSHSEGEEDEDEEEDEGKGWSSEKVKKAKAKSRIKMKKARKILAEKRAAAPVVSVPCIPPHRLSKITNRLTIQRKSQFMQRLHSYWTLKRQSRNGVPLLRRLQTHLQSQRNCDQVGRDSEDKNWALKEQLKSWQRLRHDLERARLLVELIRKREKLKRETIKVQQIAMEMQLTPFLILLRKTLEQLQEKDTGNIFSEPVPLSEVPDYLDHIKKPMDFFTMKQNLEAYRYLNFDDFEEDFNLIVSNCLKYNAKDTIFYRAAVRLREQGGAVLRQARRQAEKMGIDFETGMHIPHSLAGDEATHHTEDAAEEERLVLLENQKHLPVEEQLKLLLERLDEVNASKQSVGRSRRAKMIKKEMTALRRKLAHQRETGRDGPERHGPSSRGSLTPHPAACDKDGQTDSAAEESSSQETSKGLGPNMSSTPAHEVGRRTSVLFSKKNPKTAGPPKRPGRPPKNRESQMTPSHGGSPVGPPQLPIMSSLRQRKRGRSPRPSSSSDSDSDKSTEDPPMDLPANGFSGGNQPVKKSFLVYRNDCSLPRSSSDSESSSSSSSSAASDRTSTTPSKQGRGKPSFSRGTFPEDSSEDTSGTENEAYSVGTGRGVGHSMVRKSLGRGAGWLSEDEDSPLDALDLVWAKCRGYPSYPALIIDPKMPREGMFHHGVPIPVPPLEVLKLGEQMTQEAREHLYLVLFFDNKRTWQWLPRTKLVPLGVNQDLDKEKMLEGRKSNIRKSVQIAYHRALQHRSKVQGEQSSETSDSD
As to the kind of experiment: Displacement of tetra-acetylated histone H4 peptide (1-21) from BRPF1b (unknown origin) incubated for 30 mins followed by further incubation with tetra-acetylated histone H4 peptide (1-21) for 30 mins by Alphascreen assay.

The species named for data set [4] is Homo sapiens. As to the kind of experiment: Selectivity index, ratio of IC50 for BRD3 BD1 (unknown origin) to IC50 for recombinant human N-terminal His-tagged BRD4 BD1 (44 to 170 residues) expressed in Escherichia coli by AlphaScreen assay.
Data set [5] is filed under the species Homo sapiens. As to the kind of experiment: Selectivity index, ratio of IC50 for BRD3 BD2 (unknown origin) to IC50 for recombinant human N-terminal His-tagged BRD4 BD1 (44 to 170 residues) expressed in Escherichia coli by AlphaScreen assay.
The species named for data set [6] is Homo sapiens. As to the kind of experiment: Selectivity index, ratio of IC50 for BRD3 BD2 (unknown origin) […] (unknown origin) by AlphaScreen assay.
Data set [7] in a line: Metabolic stability in monkey liver microsomes assessed as intrinsic clearance per mg protein measured upto 60 mins by LC/MS-MS analysis. Conditions: rhesus monkey, read-out: CLH. The class given is ADME, Macaca mulatta, Microsome. (Microsomes from liver hold many membrane-bound enzymes, among them those of drug oxidation.)
A short description of data set [8]: Metabolic stability in dog liver microsomes assessed as intrinsic clearance measured per mg protein upto 60 mins by LC/MS-MS analysis. It counts as ADME, Canis lupus familiaris, Microsome. The conditions noted are these: read-out: CLH.
The target of data set [9] is T3, Bromodomain-containing protein 4 (Homo sapiens, UniProt O60885). As to the kind of experiment: Inhibition of MSU-induced BRD4 expression in human THP1 cells at 1 uM incubated for 1 hr followed by MSU treatment and measured after 12 hrs by Western blot analysis. It counts as cell-based.
For data set [10], the target named is T3, Bromodomain-containing protein 4. As to the kind of experiment: Inhibition of BRD4 BD1 in human THP1 cells assessed as inhibition of MSU-induced NF-kappaB P65 phosphorylation at 1 uM incubated for 1 hr followed by MSU treatment and measured after 12 hrs by Western blot analysis. It counts as cell-based.
Data set [11] deals with Rattus norvegicus. As to the kind of experiment: Anti-arthritic activity in Sprague-Dawley rat model of acute gout arthritis assessed as reduction in MSU-induced synovial hyperplasia at 1 mg/kg, ia administered 1 hr before MSU challenge and measured upto 24 hrs by hematoxylin and eosin staining based histopathological analysis. It counts as functional, organism-based.
Data set [12] deals with Rattus norvegicus. As to the kind of experiment: In vivo inhibition of MSU-induced NF-kappaB P65 phosphorylation in synovial tissue of Sprague-Dawley rat model of acute gout arthritis at 1 mg/kg, ia administered 1 hr before MSU challenge and measured upto 24 hrs by Western blot analysis. It counts as functional, organism-based.
In data set [13] the test system is Rattus norvegicus. As to the kind of experiment: In vivo inhibition of MSU-induced NLRP3 inflammasome in synovial tissue of Sprague-Dawley rat model of acute gout arthritis at 1 mg/kg, ia administered 1 hr before MSU challenge and measured upto 24 hrs by Western blot analysis. The class given is functional, organism-based.
The target in data set [14] is T3, Bromodomain-containing protein 4. As to the kind of experiment: Inhibition of BRD4 BD1 in human THP1 cells assessed as inhibition of MSU-induced pyroptosis by measuring caspase+/PI- cells at 1 uM incubated for 1 hr followed by MSU treatment and measured after 12 hrs by PI/caspase 1 double staining based flow cytometric analysis (reference value: 4.2 %). The class given is cell-based. Further details: scale not given: the % may be the effect or the level left.

Data set [15] is filed under the species Homo sapiens. As to the kind of experiment: Selectivity ratio of Kd for immobilized DNA-tagged human BRD4 BD1 to Kd for immobilized DNA-tagged human BRD4 BD2 by BROMOscan analysis.
Data set [16] concerns the target T3, Bromodomain-containing protein 4. As to the kind of experiment: Inhibition of BRD4 BD1 in human THP1 cells assessed as inhibition of MSU-induced co-localization of NLRP3 and ASC at 1 uM incubated for 1 hr followed by MSU treatment and measured after 12 hrs by immunofluorescence based confocal microscopy analysis. It counts as cell-based.

Calls of active or inactive are those of the source. No cut-off for these calls is given here.

T1 sequence (Q15059 whole entry): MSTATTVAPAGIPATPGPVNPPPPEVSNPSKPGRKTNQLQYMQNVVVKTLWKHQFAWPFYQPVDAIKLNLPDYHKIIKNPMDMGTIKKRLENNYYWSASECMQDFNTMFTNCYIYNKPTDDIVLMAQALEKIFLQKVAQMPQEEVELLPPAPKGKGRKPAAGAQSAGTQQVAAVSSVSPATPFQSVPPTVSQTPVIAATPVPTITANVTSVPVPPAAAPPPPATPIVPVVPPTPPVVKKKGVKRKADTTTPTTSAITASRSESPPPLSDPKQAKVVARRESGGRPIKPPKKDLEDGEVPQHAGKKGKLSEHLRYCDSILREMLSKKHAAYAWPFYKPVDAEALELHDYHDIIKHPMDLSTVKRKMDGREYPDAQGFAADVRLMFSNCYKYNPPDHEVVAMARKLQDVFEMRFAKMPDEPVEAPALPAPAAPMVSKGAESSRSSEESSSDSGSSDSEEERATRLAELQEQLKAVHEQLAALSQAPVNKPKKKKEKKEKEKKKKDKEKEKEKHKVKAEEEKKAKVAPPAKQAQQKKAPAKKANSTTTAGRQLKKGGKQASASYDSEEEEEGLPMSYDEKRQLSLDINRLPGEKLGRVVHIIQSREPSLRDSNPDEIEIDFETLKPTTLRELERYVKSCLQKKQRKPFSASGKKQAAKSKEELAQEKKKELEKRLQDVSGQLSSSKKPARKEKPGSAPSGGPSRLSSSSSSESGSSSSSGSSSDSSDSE
Bromodomain-containing protein 2, sequence (P25440 whole entry): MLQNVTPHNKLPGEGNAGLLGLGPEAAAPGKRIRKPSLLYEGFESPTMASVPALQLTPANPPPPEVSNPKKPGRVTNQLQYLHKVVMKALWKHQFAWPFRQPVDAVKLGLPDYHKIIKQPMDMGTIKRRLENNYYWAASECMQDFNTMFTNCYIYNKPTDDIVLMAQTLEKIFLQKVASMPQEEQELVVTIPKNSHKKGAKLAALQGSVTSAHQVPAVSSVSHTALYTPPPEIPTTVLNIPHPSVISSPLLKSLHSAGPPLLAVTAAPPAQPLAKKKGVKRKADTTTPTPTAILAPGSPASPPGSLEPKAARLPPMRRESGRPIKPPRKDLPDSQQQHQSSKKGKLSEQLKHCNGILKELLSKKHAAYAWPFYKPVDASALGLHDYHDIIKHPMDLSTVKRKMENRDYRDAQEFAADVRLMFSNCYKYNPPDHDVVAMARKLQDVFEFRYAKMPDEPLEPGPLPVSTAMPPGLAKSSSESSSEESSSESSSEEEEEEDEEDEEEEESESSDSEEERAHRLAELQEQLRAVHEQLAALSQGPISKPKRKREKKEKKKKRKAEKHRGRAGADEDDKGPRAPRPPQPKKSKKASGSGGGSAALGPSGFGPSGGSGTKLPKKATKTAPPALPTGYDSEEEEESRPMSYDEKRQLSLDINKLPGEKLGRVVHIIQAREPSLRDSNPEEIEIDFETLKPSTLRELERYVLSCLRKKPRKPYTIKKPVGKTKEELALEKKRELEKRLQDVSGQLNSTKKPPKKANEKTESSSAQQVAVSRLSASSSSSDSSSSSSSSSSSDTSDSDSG

For orientation: inhibition means the relative decrease from the control value, in per cent. As a reminder, the IC50 is the concentration that gives 50% inhibition. Turning to `COc1ccccc1S(=O)(=O)Nc1ccc2c3c(cc(-n4cnc(C)c4)nc13)C(=O)N2C`, in the data set on RAW264.7, the inhibition at 1 µM was found to be 102%. Moreover, the IC50 in data set [1] worked out at 8.95 µM; in [2] it was 0.246 µM; in data set [3] it was 49.8 µM; at Peregrin, 0.568 µM. The results for the Ratio IC50 in the data set listed under Homo sapiens [4], in the data set listed under Homo sapiens [5] and in the data set listed under Homo sapiens [6] were 2.8, 568 and 202, respectively. The microsomal CLint in data set [7] turned out to be 135 µL/min/mg; in data set [8] it was 133 µL/min/mg. Also, the inhibition result (in data set [9]; in [10]; with Rattus norvegicus [11]; in the data set on Rattus norvegicus [12]; in the data set on Rattus norvegicus [13]; in data set [16]) was “Active” in each case. The Activity in data set [14] was 4.1%. Also, the Selectivity ratio in the data set filed under Homo sapiens [15] was determined as 238.
